Consider two sequences from patent US7976843B2, “Method for screening peptides for use in immunotherapy” (Institut National de la Santa et de la Recherche Medicale …, priority 2000, dated 2011).

In this assay the test system is RMA-HHD cells infected with vac-HIVgag, vac-neu, vac-gp100 or flu PR8. Also on record: species or system HHD mice. Conditions: mouse, in vivo.

With ILLVVVLGV [HER-2/neu 661], the “killing of RMA-HHD cells infected with virus expressing the antigen vs vac-WT” value is reported as “exception”.

As to PLTSIISAV [HER-2/neu 650], the “killing of RMA-HHD cells infected with virus expressing the antigen vs vac-WT” value is reported as “kill target cells infected with vac-neu, but not targets infected with vac-WT”.
